How the values were obtained:
[1] = molecular target: T1, Kv1.5 channels from humans (Homo sapiens, UniProt P22460); test: Kv1.5 currents in Xenopus oocytes, two-microelectrode voltage clamp; type: cell-based
T1 construct: expressed in transfected cells; host or cells: Xenopus laevis oocytes injected with in vitro synthesized RNA
Experimental: Kv1.5 channels from humans were expressed in Xenopus oocytes. For this, oocytes from Xenopus laevis were first isolated and defolliculated. RNA encoding Kv1.5 synthesized in vitro was then injected into these oocytes. After Kv1.5 protein expression for 1-7days, Kv1.5 currents were measured on the oocytes using the two-microelectrode voltage clamp technique. The Kv1.5 channels were in this case as a rule activated using voltage jumps to 0 mV and 40 mV lasting 500 ms. The bath was rinsed with a solution of the following composition: NaCl 96 mM, KCl 2 mM, CaCl2 1.8 mM, MgCl2 1 mM, HEPES 5 mM (titrated with NaOH to pH 7.4). These experiments were carried out at room temperature. The following were employed for data acquisition and analysis: Genedamp amplifier (Axon Instruments, Foster City, USA) and MacLab D/A converter and software (AD Instruments, Castle Hill, Australia). The substances according to the invention were tested by adding them in different concentrations to the bath solution. The effects of the substances were calculated as the percentage inhibition of the Kv1.5 control current which was obtained when no substance was added to the solution. The data were then extrapolated using the Hill equation in order to determine the inhibitory concentration IC50 for the respective substances.

T1 sequence (P22460 whole entry): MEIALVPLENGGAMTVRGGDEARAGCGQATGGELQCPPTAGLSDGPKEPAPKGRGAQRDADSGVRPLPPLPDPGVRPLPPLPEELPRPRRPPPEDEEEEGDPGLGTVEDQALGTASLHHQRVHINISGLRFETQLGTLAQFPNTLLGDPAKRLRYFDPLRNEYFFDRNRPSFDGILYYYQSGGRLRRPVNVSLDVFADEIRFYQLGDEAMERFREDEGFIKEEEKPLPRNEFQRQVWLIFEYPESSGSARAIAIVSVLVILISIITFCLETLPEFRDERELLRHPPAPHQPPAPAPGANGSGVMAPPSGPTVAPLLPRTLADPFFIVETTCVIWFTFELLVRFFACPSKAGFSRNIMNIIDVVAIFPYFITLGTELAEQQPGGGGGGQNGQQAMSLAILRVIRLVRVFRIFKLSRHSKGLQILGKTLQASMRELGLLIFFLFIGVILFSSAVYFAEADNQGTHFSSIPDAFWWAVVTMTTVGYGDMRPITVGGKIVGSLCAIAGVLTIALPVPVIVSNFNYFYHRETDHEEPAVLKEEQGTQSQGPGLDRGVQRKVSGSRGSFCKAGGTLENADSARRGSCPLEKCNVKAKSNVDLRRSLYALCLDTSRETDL

Structure (SMILES)	IC50 [1]	melting point
COc1ccc(S(=O)(=O)NCc2ccccc2-c2ccccc2C(=O)N[C@@H](CC(C)C)C(=O)NCC(F)(F)F)cc1 [13 h]	1400 nM	
CC(C)NC(=O)C(Cc1ccccn1)NC(=O)c1ccccc1-c1ccccc1CNC(=O)OCc1ccccc1 (stereo not shown) [13 i]	1200 nM	
Cc1ccccc1CCC(=O)NCc1ccccc1-c1ccccc1C(=O)NCc1ccc(F)cc1F [14 a]	3600 nM	
O=C(CCc1ccc(F)cc1)NCc1ccccc1-c1ccccc1C(=O)NCc1ccc(F)cc1F [14 b]	2700 nM	
O=C(CCc1ccc(O)cc1)NCc1ccccc1-c1ccccc1C(=O)NCc1ccc(F)cc1F [14 d]	2000 nM	
COc1ccc(CCC(=O)NCc2ccccc2-c2ccccc2C(=O)NCc2ccc(F)cc2F)cc1 [14 e]	800 nM	
O=C(CCc1ccc(F)c(F)c1)NCc1ccccc1-c1ccccc1C(=O)NCc1ccc(F)cc1F [14 f]	2500 nM	
COc1ccc(-c2ccccc2CNC(=O)OC(C)(C)C)c(C(=O)NCCC(C)C)c1 [15 b]	3100 nM	
CC(C)CCNC(=O)c1cc(O)ccc1-c1ccccc1CNC(=O)OCc1ccccc1 [16 b]	5200 nM	
CC(C)CCNC(=O)c1ccccc1-c1ccccc1[C@@H](C)NC(=O)OCc1ccccc1 [17 c]	2100 nM	
CC(C)CCNC(=O)c1ccccc1-c1ccccc1[C@H](C)NC(=O)OCc1ccccc1 [17 d]	1300 nM	
CC(C)CCNC(=O)c1ccccc1-c1ccccc1[C@H](C)NC(=O)O[C@@H](C)c1ccccc1 [17 e]	1800 nM	
CC(C)CCC(=O)NCc1ccccc1-c1ccccc1C(=O)NCC1CC1 [18 a]	7200 nM	
COCCCNC(=O)c1ccccc1-c1ccccc1CNC(=O)OCc1ccccc1 [18 aa]	400 nM	
COc1ccc(CC(=O)NCc2ccccc2-c2ccccc2C(=O)NC(C)CC(C)C)cc1 (stereo not shown) [18 ab]	1100 nM	
CC[C@@H](C)OC(=O)NCc1ccccc1-c1ccccc1C(=O)NCc1cccc(C)n1 [18 ac]	10000 nM	
COc1ccc(CC(=O)NCc2ccccc2-c2ccccc2C(=O)NCc2nc3ccccc3[nH]2)cc1 [18 af]	5800 nM	
O=C(NCc1ccccc1-c1ccccc1C(=O)NCc1nc2ccccc2[nH]1)OCc1ccccc1 [18 ah]	2100 nM	
CN(C)c1ccc(CNC(=O)c2ccccc2-c2ccccc2CNC(=O)OCc2ccccc2)cc1 [18 ai]	6600 nM	
C[C@H](CC(=O)NCc1ccccc1-c1ccccc1C(=O)NCC1CC1)c1ccccc1 [18 b]	400 nM	

Structure (SMILES)	IC50 [1]	melting point
CC(C)CCNC(=O)c1ccccc1-c1ccccc1CNC(=O)COc1ccccc1 [18 c]	4200 nM	
CC(C)CCNC(=O)c1ccccc1-c1ccccc1CNC(=O)C[C@@H](C)c1ccccc1 [18 d]	400 nM	
CC(C)CCC(=O)NCc1ccccc1-c1ccccc1C(=O)NCc1ccc(F)cc1F [18 e]	1700 nM	
C[C@H](CC(=O)NCc1ccccc1-c1ccccc1C(=O)NCc1ccncc1)c1ccccc1 [18 f]	1300 nM	
CCC(C)CC(=O)NCc1ccccc1-c1ccccc1C(=O)NCc1ccccn1 (stereo not shown) [18 g]	3900 nM	
C[C@H](CC(=O)NCc1ccccc1-c1ccccc1C(=O)NCCc1ccncc1)c1ccccc1 [18 h]	800 nM	
C[C@H](CC(=O)NCc1ccccc1-c1ccccc1C(=O)NCCc1cccnc1)c1ccccc1 [18 i]	400 nM	
Cc1cccc(CNC(=O)c2ccccc2-c2ccccc2CNC(=O)C[C@@H](C)c2ccc([N+](=O)[O-])cc2)n1 [18 j]	700 nM	
O=C(Cc1ccc(F)cc1)NCc1ccccc1-c1ccccc1C(=O)Nc1ccc(F)cc1 [18 k]	3000 nM	
CCCC(C)OC(=O)NCc1ccccc1-c1ccccc1C(=O)NCC1CC1 (stereo not shown) [18 m]	2100 nM	
C[C@H](O)CNC(=O)c1ccccc1-c1ccccc1CNC(=O)O[C@@H](C)c1ccccc1 [18 n]	400 nM	
CC(C)CCNC(=O)c1ccccc1-c1ccccc1CNC(=O)OCC1CC1 [18 o]	3600 nM	
O=C(NCc1ccccc1-c1ccccc1C(=O)NCc1cccnc1)OCCc1ccccc1 [18 q]	3200 nM	
C[C@H](OC(=O)NCc1ccccc1-c1ccccc1C(=O)NCCc1cccnc1)c1ccccc1 [18 s]	900 nM	
O=C(Cc1ccc(F)cc1)NCc1ccccc1-c1ccccc1C(=O)NCc1ccc(F)cc1F [18 u]	1100 nM	
O=C(Cc1ccc(O)cc1)NCc1ccccc1-c1ccccc1C(=O)NCc1ccc(F)cc1F [18 w]	5400 nM	
COc1ccc(CC(=O)NCc2cccc(C)c2-c2c(C)cccc2C(=O)NCCC(C)C)cc1 [18 x]	4600 nM	
COc1ccc(CC(=O)NCc2ccccc2-c2ccccc2C(=O)NCCCOC(C)C)cc1 [18 y]	1900 nM	
COc1ccc(CC(=O)NCc2ccccc2-c2ccccc2C(=O)NC2CCCC2)cc1 [18 z]	1200 nM	
CC(C)CCNC(=O)c1ccccc1-c1ccccc1CNC(=O)OCc1ccccc1 [Example 2 b, 2′-(Benzyloxycarbonylaminomethyl)biphenyl-2-carboxylic acid (3-methylbutyl)amide]		112 °C

Structure (SMILES)	IC50 [1]	melting point
O=C(NCCc1ccccc1)c1ccccc1-c1ccccc1CNS(=O)(=O)c1cccc(C(F)(F)F)c1 [Example 3 a, 2′-(3-Trifluoromethylphenylsulfonylaminomethyl)biphenyl-2-carboxylic acid phenethylamide]		145 °C
CC(=O)c1ccc(S(=O)(=O)NCc2ccccc2-c2ccccc2C(=O)NCCc2ccccc2)cc1 [Example 3 b, 2′-(4-Acetylphenylsulfonylaminomethyl)biphenyl-2-carboxylic acid phenethylamide]		145 °C
O=C(NCCc1ccccc1)c1ccccc1-c1ccccc1CNS(=O)(=O)c1cccc([N+](=O)[O-])c1 [Example 3 c, 2′-(3-Nitrophenylsulfonylaminomethyl)biphenyl-2-carboxylic acid phenethylamide]		145 °C
O=C(NCCc1ccccc1)c1ccccc1-c1ccccc1CNS(=O)(=O)c1ccccc1 [Example 3 d, 2′-(Phenylsulfonylaminomethyl)biphenyl-2-carboxylic acid phenethylamide]		154 °C
O=C(NCCc1ccccc1)c1ccccc1-c1ccccc1CNS(=O)(=O)c1cccc(F)c1 [Example 3 e, 2′-(3-Fluorophenylsulfonylaminomethyl)biphenyl-2-carboxylic acid phenethylamide]		153 °C
CCc1ccc(S(=O)(=O)NCc2ccccc2-c2ccccc2C(=O)NCCc2ccccc2)cc1 [Example 3 f, 2′-(4-Ethylphenylsulfonylaminomethyl)biphenyl-2-carboxylic acid phenethylamide]		163 °C
O=C(NCc1ccccc1)c1ccccc1-c1ccccc1CNS(=O)(=O)c1cccc(C(F)(F)F)c1 [Example 3 g, 2′-(3-Trifluoromethylphenylsulfonylaminomethyl)biphenyl-2-carboxylic acid benzylamide]		126 °C
CC(=O)c1cccc(S(=O)(=O)NCc2ccccc2-c2ccccc2C(=O)NCc2ccccc2)c1 [Example 3 h, 2′-(3-Acetylphenylsulfonylaminomethyl)biphenyl-2-carboxylic acid benzylamide]		182 °C
O=C(NCc1ccccc1)c1ccccc1-c1ccccc1CNS(=O)(=O)c1cccc([N+](=O)[O-])c1 [Example 3 i, 2′-(3-Nitrophenylsulfonylaminomethyl)biphenyl-2-carboxylic acid benzylamide]		175 °C
O=C(NCc1ccccc1)c1ccccc1-c1ccccc1CNS(=O)(=O)c1ccccc1 [Example 3 j, 2′-(3-Phenylsulfonylaminomethyl)biphenyl-2-carboxylic acid benzylamide]		162 °C
O=C(NCc1ccccc1)c1ccccc1-c1ccccc1CNS(=O)(=O)c1cccc(F)c1 [Example 3 k, 2′-(3-Fluorophenylsulfonylaminomethyl)biphenyl-2-carboxylic acid benzylamide]		147 °C
CC(C)CCNC(=O)c1ccccc1-c1ccccc1CNS(=O)(=O)c1ccccc1 [Example 3 l, 2′-(Phenylsulfonylaminomethyl)biphenyl-2-carboxylic acid (3-methyl butyl)amide]		127 °C
CC(C)CCNC(=O)c1ccccc1-c1ccccc1CNS(=O)(=O)c1ccc(F)cc1 [Example 3 m, 2′-(4-Fluorophenylsulfonylaminomethyl)biphenyl-2-carboxylic acid (3-methylbutyl)amide]		149 °C
CC(C)CCNC(=O)c1ccccc1-c1ccccc1CNS(=O)(=O)c1cccc(F)c1 [Example 3 n, 2′-(3-Fluorophenylsulfonylaminomethyl)biphenyl-2-carboxylic acid (3-methylbutyl)amide]		141 °C
O=C(NCCc1ccccn1)c1ccccc1-c1ccccc1CNS(=O)(=O)c1ccccc1 [Example 3 p]		131 °C
O=C(NCCc1ccccn1)c1ccccc1-c1ccccc1CNS(=O)(=O)c1ccc(F)cc1 [Example 3 q, 2′-(4-Fluorophenylsulfonylaminomethyl)biphenyl-2-carboxylic acid 2-(2-pyridyl)ethylamide]		130 °C
O=C(NCCc1ccccn1)c1ccccc1-c1ccccc1CNS(=O)(=O)c1cccc(F)c1 [Example 3 r, 2′-(3-Fluorophenylsulfonylaminomethyl)biphenyl-2-carboxylic acid 2-(2-pyridyl)ethylamide]		123 °C
CC(C)CCNC(=O)c1ccccc1-c1ccccc1CNC(=O)c1ccccc1 [Example 4 a, 2′-(Benzoylaminomethyl)biphenyl-2-carboxylic acid (3-methylbutyl)amide]		147 °C

Source: patent publication US7514582B2, “2′-substituted 1,1′-biphenyl-2-carboxamides, processes for their preparation, their use as medicaments, and pharmaceutical preparations comprising them” (Sanofi-Aventis Deutschland GmbH, priority 1999, dated 2009)
